Experimental data taken from patent US10449200B2, “Combined inhibition of the vitamin D receptor and poly(ADP) ribose polymerase (PARP) in the treatment of cancer” (Institute for Cancer Research, priority 2014, dated 2019).
Where two headings read alike, the source gives them in different places.

Tests used:
Type in all cases: cell-based, human
BxPC3 cells [1] = test: Clonogenic survival assay, gemcitabine kill curves
Method: (§1) Cell culture and chemicals. Panc1, BxPC3, and CFPAC1 cells were purchased from American Type Culture Collection (ATCC) and banked in house until use. Cell lines were cultured in DMEM/10% FBS supplemented with 2 mM glutamine and 1% penicillin, streptomycin, and kanamycin (PSK) and were maintained at 37° C. in 5% CO2. Charcoal stripped (in house cell culture facility) and dialyzed FBS (Life Technologies; 509 26400-036) were used. Gemcitabine was obtained from the in house pharmacy. Rucaparib and trichostatin A were gifts.
(§2) Cell viability assays. For clonogenic assays, 1000 cells per well were seeded into 6 well plates on day 0. Cells were treated with gemcitabine at various doses on day 1 for 24 hours, Gemcitabine was washed out on day 2, and cells were allowed to grow for a subsequent 10 days before being fixed (10% methanol+10% acetic acid) and stained with crystal violet (0.4% in 20% ethanol) for colony counting and quantitation. For Rucaparib clonogenic assays, the drug was added at various doses 24 hours after cell plating, and cells were allowed to grow for a subsequent 10 days in the presence of Rucaparib. For TSA clonogenic assays, the drug was added for 4 hours prior to addition of gemcitabine or vehicle for another 18 hours before drugs were washed away, and cells were allowed to grow in drug-free medium for 10 days.

Panc1 cells [2] = test: Clonogenic survival assay, gemcitabine; details: for IC50: Homo sapiens
Method: as §1, §2

BxPC3 cells [3] = test: Immunofluorescence of DNA damage foci (phospho-γH2AX, Rad51, 53BP1) after gemcitabine; details: for cells positive for Rad51 foci (>5 foci/nucleus): 18 hrs post gemcitabine
Method: (§3) For Immunofluorescence, cells were plated onto coverslips 24 hours pre-gemcitabine treatment. At different timepoints post gemcitabine treatment, cells were permeablized, fixed (4% paraformaldehyde) and stained. Antibodies to γH2AX (Millipore; 05-636), Rad51 (a gift), and 53BP1 were used. Alexa Fluor-conjugated (488, 555, and 647 nm) secondary antibodies (Molecular probes; A-11029, A-21428, A-21247) were used at a final concentration of 1 and nuclei counterstained with DAPI. Images were captured using a 40× or 63× high NA objective mounted on a semi-automated inverted microscope (Nikon TEi) with a charge-coupled device camera (Photometrics1394) using Nikon Elements 2.0. Exposure times for antibodies were optimized for control samples and identical exposure times used for the experimental samples. Images were quantitated and analyzed using Nikon Elements 2.0. Confocal images were taken using a Leica TCS-SP8 microscope controlled by LAS software (Leica Microsystems).
It was investigated if these repair pathways were abrogated after VDR knockdown by staining for foci formation by phospho-γH2AX, Rad51, and 53BP1, and measuring intensities after gemcitabine treatment (FIGS. 3, 4, and 5). BxPC3 (high VDR expression) and Panc1 (low VDR expression) cells were treated with gemcitabine (50 nM) for 2, 4, 8, and 18 hours, and fixed and stained for phospho-γH2AX, 53BP1, and Rad51. Foci quantitation included counting of nuclei with >5 foci and a separate measurement of the sum intensities of foci that were averaged for 5 separate immunofluorescence experiments. […] Weak but detectable phospho-γH2AX foci were visible within 4 hours of gemcitabine treatment in BxPC3 cells while it took 18 hours for foci to form in Panc1 cells (FIG. 3, A). Similarly, Rad51 foci were visible after 8 hours of gemcitabine treatment in BxPC3 cells compared to 18 hours in Panc1 cells (FIG. 3, A, FIG. 4, and FIG. 5).

Panc1 cells [4] = test: Immunofluorescence of DNA damage foci (phospho-γH2AX, Rad51) after gemcitabine
Method: as §3
It was investigated if these repair pathways were abrogated after VDR knockdown by staining for foci formation by phospho-γH2AX, Rad51, and 53BP1, and measuring intensities after gemcitabine treatment (FIGS. 3, 4, and 5). BxPC3 (high VDR expression) and Panc1 (low VDR expression) cells were treated with gemcitabine (50 nM) for 2, 4, 8, and 18 hours, and fixed and stained for phospho-γH2AX, 53BP1, and Rad51. Foci quantitation included counting of nuclei with >5 foci and a separate measurement of the sum intensities of foci that were averaged for 5 separate immunofluorescence experiments.

BxPC3 cells [5] = test: Western blot of Rad51 and γH2AX in supernatant and chromatin fractions; details: gemcitabine for 18 hours
Method: Western Blotting. BxPC3, Panc1, and CFPAC1 cells were treated with vehicle or gemcitabine (50 nM) for 18 hrs. Cells were harvested, washed in PBS and lysed in NP40 lysis buffer (1% NP40/PBS/10% glycerol) with protease and phosphatase inhibitors. Protein concentrations were determined with MicroBCA Assay (Pierce Biotechnology; 23224 and 23228) and then SDS sample buffer was added to the lysates. 40 μg of boiled lysates was separated by SDS-PAGE and then transferred onto Immobilon P membrane (Millipore; IPVH00010). Antibodies used for immunoblotting were obtained from: VDR (Epitomics; 3277-1), γH2AX (Upstate Biotechnologies, now Millipore; 05-636), Rad51 (Genetex; GTX70230, gift), p300 (Santa Cruz Biotechnologies; SC-584), and TAO1 kinase (Bethyl Labs; A300-524A).

[6] = BxPC3 VDRkd, 18 hours after gemcitabine
[7] = BxPC3 VDRkd, 18 hours of gemcitabine
[8] = Panc1 cells or VDR depleted BXPC3 versus BxPC3, after gemcitabine
[9] = parental BxPC3, 18 hours of gemcitabine

In the case of `Nc1ccn([C@@H]2O[C@H](CO)[C@@H](O)C2(F)F)c(=O)n1` [gemcitabine], the “reduction in gemcitabine IC50 after depletion of VDR” value (BxPC3 cells [1]; BXPC3 cells) is reported as about 3 fold, the IC50 (BxPC3 cells [1]; BxPC3 VDRkd cells transfected with WT-VDR, read-out: IC50 gemcitabine) is reported as about 260 nM and the IC50 (BxPC3 cells [1]; Homo sapiens, BXPC-3, BxPC3, VDR siRNA, read-out: mean IC50 gemcitabine) is reported as about 60 nM. For the same molecule, the IC50 (BxPC3 cells [1]; Homo sapiens, BXPC-3, BxPC3, control shRNA, read-out: IC50 gemcitabine) was about 80 nM, the IC50 (BxPC3 cells [1]; Homo sapiens, BXPC-3, BxPC3, control siRNA, read-out: mean IC50 gemcitabine) was about 200 nM and the IC50 (BxPC3 cells [1]; Homo sapiens, BXPC-3, BxPC3, p300 shRNA, read-out: IC50 gemcitabine) was about 40 nM. The IC50 (BxPC3 cells [1]; Homo sapiens, BXPC-3, BxPC3 VDRkd cells transfected with WT-VDR, read-out: IC50 gemcitabine) was about 300 nM, the IC50 (BxPC3 cells [1]; Homo sapiens, BXPC-3, BxPC3 VDRkd cells, WT-VDR co-transfected with AML1/ETO, read-out: IC50 gemcitabine) was about 80 nM and the IC50 (BxPC3 cells [1]; Homo sapiens, BXPC-3, BxPC3 VDRkd cells, WT-VDR co-transfected with S237M mutant, read-out: IC50 gemcitabine) was about 60 nM. For the same molecule, the IC50 (BxPC3 cells [1]; Homo sapiens, BXPC-3, BxPC3 VDRkd cells, untransfected, read-out: IC50 gemcitabine) was about 50 nM, the IC50 (BxPC3 cells [1]; Homo sapiens, BXPC-3, BxPC3 VDRkd cells, vector transfected, read-out: IC50 gemcitabine) was about 50 nM and the IC50 (BxPC3 cells [1]; Homo sapiens, BXPC-3, BxPC3 cells (highest VDR levels), read-out: mean IC50 gemcitabine) was about 200 nM. The “increase of gemcitabine IC50 over vector controls” value (BxPC3 cells [1]; wild type VDR transfected into VDR depleted BXPC3 cells) was about 6 fold, the IC50 (Panc1 cells [2]; PANC-1, Panc1, VDR knockdown (siRNA)) was about 18 nM and the IC50 (Panc1 cells [2]; PANC-1, Panc1, control cells (control shRNA)) was about 19 nM. It also gave an IC50 (Panc1 cells [2]; PANC-1, Panc1, control transfected) of about 30 nM, an IC50 (Panc1 cells [2]; PANC-1, Panc1, p300 knockdown) of about 16 nM and an IC50 (Panc1 cells [2]; PANC-1, Panc1 transfected with WT-VDR (overexpression)) of about 250 nM. For the same molecule, the IC50 (Panc1 cells [2]; PANC-1, Panc1 transfected with vector) was about 25 nM, the IC50 (Panc1 cells [2]; PANC-1, Panc1 cells) was about 30 nM and the “cells survived (colony formation) compared to control samples treated with gemcitabine” value (Panc1 cells [2]; Panc1, Chk1 siRNA, 50 nM gemcitabine 24 hours) was 3%. The “cells survived (colony formation) compared to control samples treated with gemcitabine” value (Panc1 cells [2]; Panc1, VDR siRNA, 50 nM gemcitabine 24 hours) was 8%, the “colony formation, vehicle versus gemcitabine” value (Panc1 cells [2]; Panc1, control siRNA, 50 nM gemcitabine 24 hours) was “did not differ significantly” and the “increase of gemcitabine IC50 over controls” value (Panc1 cells [2]; Panc1 cells with increased VDR levels) was about 10 fold. For the same molecule, the “time until Rad51 foci detected after gemcitabine” value (BxPC3 cells [3]; BxPC3 VDRkd cells) was 18 h, the “time until phospho-γH2AX foci detected after gemcitabine” value (BxPC3 cells [3]; BxPC3 VDRkd cells) was 8 h and the “cells exhibiting Rad51 foci” value (BxPC3 cells [3]; BxPC3 VDRkd, 4 hrs in gemcitabine (50 nM), absence of TSA) was 11%. For the same molecule, the “cells with diffuse phospho-γH2AX pattern” value (BxPC3 cells [3]; [6]) was 82%, the “cells with punctate phospho-γH2AX foci” value (BxPC3 cells [3]; [6]) was 18% and the “cells with clear Rad51 foci” value (BxPC3 cells [3]; [7]) was 28%. The “cells with diffuse 53BP1 pattern” value (BxPC3 cells [3]; [7]) was 69%, the “cells with diffuse Rad51 staining” value (BxPC3 cells [3]; [7]) was 72% and the “cells with punctate 53BP1 foci” value (BxPC3 cells [3]; [7]) was 31%. The “cells positive for Rad51 foci (>5 foci/nucleus)” value (BxPC3 cells [3]; BxPC3 control cells) was about 84%, the “cells positive for Rad51 foci (>5 foci/nucleus)” value (BxPC3 cells [3]; BxPC3 transfected with p300 shRNA) was about 22% and the “delay of Rad51 foci formation kinetics” value (BxPC3 cells [3]; [8]) was 4 h. The “delay of phospho-γH2AX foci formation kinetics” value (BxPC3 cells [3]; [8]) was 6 h, the “reduction of Rad51 foci intensity” value (BxPC3 cells [3]; [8]) was 1.5 fold and the “reduction of phospho-γH2AX foci intensity” value (BxPC3 cells [3]; [8]) was 2 fold. For the same molecule, the “reduction of Rad51 focal intensity” value (BxPC3 cells [3]; p300 knockdown cells compared to control cells, gemcitabine treated) was about 35%, the “cells with punctate phospho-γH2AX foci” value (BxPC3 cells [3]; parental BxPC3, 18 hours after gemcitabine) was 94% and the “cells with clear Rad51 foci” value (BxPC3 cells [3]; [9]) was 92%. For the same molecule, the “cells with diffuse 53BP1 pattern” value (BxPC3 cells [3]; [9]) was 10%, the “cells with diffuse Rad51 staining” value (BxPC3 cells [3]; [9]) was 8% and the “cells with punctate 53BP1 foci” value (BxPC3 cells [3]; [9]) was 90%. The “time until Rad51 foci visible after gemcitabine” value (BxPC3 cells [3]; parental BxPC3, gemcitabine 50 nM) was 8 h, the “cells exhibiting Rad51 foci” value (BxPC3 cells [3]; parental BxPC3, within 4 hours of gemcitabine treatment) was 92% and the “time until Rad51 foci visible after gemcitabine” value (Panc1 cells [4]; Panc1, gemcitabine 50 nM) was 18 h. For the same molecule, the “time until phospho-γH2AX foci form after gemcitabine” value (Panc1 cells [4]; Panc1, gemcitabine 50 nM) was 18 h, the “time until phospho-γH2AX and Rad51 foci after gemcitabine addition” value (Panc1 cells [4]; Panc1 transfected with VDR siRNA) was 18 h and the “time until phospho-γH2AX and Rad51 foci after gemcitabine addition” value (Panc1 cells [4]; Panc1 transfected with control) was about 8 h. The “Rad51 and H2AX in whole cell extracts (supernatants), parental versus BxPC3 VDRkd” value (BxPC3 cells [5]) was “equivalent amounts” and the “Rad51 and phospho-γH2AX in chromatin fractions, VDRkd compared to parental BxPC3” value (BxPC3 cells [5]) was “very low amounts”.
